The values that follow come from PubChem BioAssay (NCI).

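All cell lines were grown in 96-well plates and treated with compound for 48 hours. GI50: concentration for 50% inhibition of growth. At the TGI there is no net growth.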

The first assay relates to HOP-62 NSCLC. In words: growth of human tumour cells (NCI), 48 h.
In turn, `O=c1nc(N2CCN(c3ccccc3)CC2)ccn1C1OC(CO)C(O)C1O` (stereo not drawn) showed a TGI above 100 µM.
The same measure, in the same setting: in the case of `Oc1ccc(/C=C/c2cc(O)cc(O)c2)cc1` it was above 100 µM; in that of `O=C(CN1c2ccccc2Sc2ccccc21)N1CCNCC1`, above 100 µM; in that of `O=C(O)c1c2c(cc3c1CC1(Cc4ccccc4C1)C3)CCC2`, above 100 µM.
The compound `Cc1nc(-c2ccc([N+](=O)[O-])cc2)cn2c1nc1ccccc12` displayed a TGI above 100 µM.
Same read-out and setting: in the case of `CN(C)CCCOC(=O)C(c1ccccc1)C1(O)CCSCC1` (stereo not drawn) it was above 100 µM; in that of `COCOC1/C=C/CCCCC2=C(C)C=C(C1)O2` (stereo not drawn), above 100 µM; in that of `O=C(O)c1cc2c(cc1CC(Cc1ccc3c(c1)CCC3)C(=O)O)CCC2` (stereo not drawn), above 100 µM.
The same measure, in the same setting: the figure for `COc1cc(-c2cc(=O)c3cc4c(cc3[nH]2)OCO4)cc(OC)c1O` is above 10 µM; for `O=C(Nc1ccc(Br)cc1)c1c(-c2ccccc2)c2ccc(O)cc2oc1=O` it is above 10 µM.
The same measure, in the same setting: in the case of `O=C1C(Cl)=C(N2CCN(C3=C(Cl)C(=O)c4ccccc4C3=O)CC2)C(=O)c2ccccc21` it was 25.5 µM; in that of `CC(C)(N=NC(C)(C)C(=O)NCCO)C(=O)NCCO`, above 100 µM; in that of `CCOc1cc(NC(C)=O)ccc1C(=O)NNC(=O)c1ccccc1OC(C)=O`, above 100 µM.
In turn, `O=C(O)CN(CCNC(=O)OCC1c2ccccc2-c2ccccc21)CCNC(=O)OCC1c2ccccc2-c2ccccc21` yielded a TGI of 44.7 µM.

The subject of a further assay is SW-620 colon. In words: growth of human tumour cells (NCI), 48 h.
Compound `COCOC1/C=C/CCCC#C[C@H](C)C(=O)CC1` (stereo partly drawn) gave a TGI of 5.64 µM.
The same measure, in the same setting: the figure for `CN(C)/N=N/c1nc2c(c(=O)n(C)c(=O)n2C)n1C` is above 100 µM.
Consider `COc1ccc2[nH]c(O)c(/C=c3/cc4c(c(-c5cc(OC)c(OC)c(OC)c5)n3)=Nc3ccccc3-4)c2c1`, for which the GI50 was 4.96 µM and the TGI was above 100 µM.
With `COc1ccccc1N/C(=C\C(=O)C(=O)NC12CC3CC(CC(C3)C1)C2)c1ccccc1`, the TGI is above 10 µM.
`NCC1CCN(c2nc3ccccc3c3c2CCCC3)CC1`: the TGI was 9.34 µM.
On the same count and under the same terms, in the case of `CCN(CC)CCc1c2c(nc3ccccc13)C(=O)c1cccnc1C2=O` it was 12.7 µM; in that of `COc1ccccc1Nc1nc(N)nc(N)c1N=O`, above 100 µM.
`COc1cccc2c(N)c3cccc(C(=O)NCCN(C)C)c3nc12` registered a TGI of 2.71 µM.
The same measure, in the same setting: in the case of `O=C(CCCCCCCCC(=O)NN1C(=O)/C(=C\c2ccc(O)c(O)c2)SC1c1ccc(Cl)cc1)NN1C(=O)/C(=C\c2ccc(O)c(O)c2)SC1c1ccc(Cl)cc1` (stereo not drawn) it was above 100 µM.
The same measure, in the same setting: in the case of `CC(C)Sc1nc(C#N)cc2c1CCCC2` it was above 100 µM; in that of `CN1C(=O)N(c2ccccc2)C2(CCN(CC3COc4ccccc4O3)CC2)C1=O` (stereo not drawn), 36.4 µM; in that of `O=C1/C(=C/c2ccccc2)N=C(c2ccccc2)N1n1c(-c2ccccc2)nc2ccccc2c1=O`, above 100 µM.
The same measure, in the same setting: the figure for `O=c1nc(N2CCN(c3ccccc3)CC2)ccn1C1OC(CO)C(O)C1O` (stereo not drawn) is above 100 µM; for `Oc1ccc(/C=C/c2cc(O)cc(O)c2)cc1` it is above 100 µM; for `O=C(CN1c2ccccc2Sc2ccccc21)N1CCNCC1` it is above 100 µM.
`O=C(O)c1c2c(cc3c1CC1(Cc4ccccc4C1)C3)CCC2` had a TGI above 100 µM.
The same measure, in the same setting: in the case of `Cc1nc(-c2ccc([N+](=O)[O-])cc2)cn2c1nc1ccccc12` it was above 100 µM; in that of `CN(C)CCCOC(=O)C(c1ccccc1)C1(O)CCSCC1` (stereo not drawn), above 100 µM; in that of `COCOC1/C=C/CCCCC2=C(C)C=C(C1)O2` (stereo not drawn), above 100 µM.
On the same count and under the same terms, the figure for `O=C(O)c1cc2c(cc1CC(Cc1ccc3c(c1)CCC3)C(=O)O)CCC2` (stereo not drawn) is above 100 µM.
Same read-out and setting: in the case of `COc1cc(-c2cc(=O)c3cc4c(cc3[nH]2)OCO4)cc(OC)c1O` it was above 10 µM; in that of `O=C(Nc1ccc(Br)cc1)c1c(-c2ccccc2)c2ccc(O)cc2oc1=O`, above 10 µM; in that of `O=C1C(Cl)=C(N2CCN(C3=C(Cl)C(=O)c4ccccc4C3=O)CC2)C(=O)c2ccccc21`, 2.68 µM.
Consider `CC(C)(N=NC(C)(C)C(=O)NCCO)C(=O)NCCO`, for which the TGI was above 100 µM.
Same read-out and setting: the figure for `CCOc1cc(NC(C)=O)ccc1C(=O)NNC(=O)c1ccccc1OC(C)=O` is above 100 µM; for `O=C(O)CN(CCNC(=O)OCC1c2ccccc2-c2ccccc21)CCNC(=O)OCC1c2ccccc2-c2ccccc21` it is 42.3 µM.

The subject of a further assay is KM12 colon. In words: growth of human tumour cells (NCI), 48 h.
Consider `COCOC1/C=C/CCCC#C[C@H](C)C(=O)CC1` (stereo partly drawn), for which the TGI worked out at 17 µM.
Same read-out and setting: the figure for `CN(C)/N=N/c1nc2c(c(=O)n(C)c(=O)n2C)n1C` is above 100 µM.
`COc1ccc2[nH]c(O)c(/C=c3/cc4c(c(-c5cc(OC)c(OC)c(OC)c5)n3)=Nc3ccccc3-4)c2c1`: the GI50 was 5.04 µM and the TGI is above 100 µM.
`COc1ccccc1N/C(=C\C(=O)C(=O)NC12CC3CC(CC(C3)C1)C2)c1ccccc1` displayed a TGI above 10 µM.
In turn, `NCC1CCN(c2nc3ccccc3c3c2CCCC3)CC1` had a TGI of 15.9 µM.
`CCN(CC)CCc1c2c(nc3ccccc13)C(=O)c1cccnc1C2=O` showed a TGI of 6.57 µM.
Same read-out and setting: the figure for `COc1ccccc1Nc1nc(N)nc(N)c1N=O` is above 100 µM; for `COc1cccc2c(N)c3cccc(C(=O)NCCN(C)C)c3nc12` it is 3.59 µM; for `O=C(CCCCCCCCC(=O)NN1C(=O)/C(=C\c2ccc(O)c(O)c2)SC1c1ccc(Cl)cc1)NN1C(=O)/C(=C\c2ccc(O)c(O)c2)SC1c1ccc(Cl)cc1` (stereo not drawn) it is above 100 µM.
In turn, `CC(C)Sc1nc(C#N)cc2c1CCCC2` yielded a TGI above 100 µM.
In turn, `CN1C(=O)N(c2ccccc2)C2(CCN(CC3COc4ccccc4O3)CC2)C1=O` (stereo not drawn) gave a TGI above 100 µM.
`O=C1/C(=C/c2ccccc2)N=C(c2ccccc2)N1n1c(-c2ccccc2)nc2ccccc2c1=O` had a TGI above 100 µM.
Same read-out and setting: the figure for `O=c1nc(N2CCN(c3ccccc3)CC2)ccn1C1OC(CO)C(O)C1O` (stereo not drawn) is above 100 µM; for `Oc1ccc(/C=C/c2cc(O)cc(O)c2)cc1` it is above 100 µM.
The same measure, in the same setting: the figure for `O=C(CN1c2ccccc2Sc2ccccc21)N1CCNCC1` is above 100 µM.
Still for that read-out and setting: the figure for `O=C(O)c1c2c(cc3c1CC1(Cc4ccccc4C1)C3)CCC2` is above 100 µM.
`Cc1nc(-c2ccc([N+](=O)[O-])cc2)cn2c1nc1ccccc12` yielded a TGI above 100 µM.
Same read-out and setting: the figure for `CN(C)CCCOC(=O)C(c1ccccc1)C1(O)CCSCC1` (stereo not drawn) is above 100 µM; for `COCOC1/C=C/CCCCC2=C(C)C=C(C1)O2` (stereo not drawn) it is above 100 µM; for `O=C(O)c1cc2c(cc1CC(Cc1ccc3c(c1)CCC3)C(=O)O)CCC2` (stereo not drawn) it is above 100 µM.
The same measure, in the same setting: in the case of `COc1cc(-c2cc(=O)c3cc4c(cc3[nH]2)OCO4)cc(OC)c1O` it was above 10 µM; in that of `O=C(Nc1ccc(Br)cc1)c1c(-c2ccccc2)c2ccc(O)cc2oc1=O`, above 10 µM.
The compound `O=C1C(Cl)=C(N2CCN(C3=C(Cl)C(=O)c4ccccc4C3=O)CC2)C(=O)c2ccccc21` returned a TGI of 15.4 µM.
Compound `CC(C)(N=NC(C)(C)C(=O)NCCO)C(=O)NCCO` showed a TGI above 100 µM.
The compound `CCOc1cc(NC(C)=O)ccc1C(=O)NNC(=O)c1ccccc1OC(C)=O` gave a TGI above 100 µM.
The same measure, in the same setting: the figure for `O=C(O)CN(CCNC(=O)OCC1c2ccccc2-c2ccccc21)CCNC(=O)OCC1c2ccccc2-c2ccccc21` is 34.7 µM.
